Assay results taken from PubChem BioAssay AID256 (DTP/NCI, 2004).
Where “and” joins values, the source holds several entries; their conditions need not be identical. Identical values can stand only once. Toxic doses and inconclusive results are not listed. How the source made its calls: active means survival T/C of 150% or more; inactive means T/C below 125% in these data.

Tested on: CD2F1 mice, L1210 leukemia ip, survival T/C
Experiment: NCI In Vivo Anticancer Drug Screen. Data for tumor model L1210 Leukemia (intraperitoneal) in CD2F1 (CDF1) mice
Settings: higher = longer survival
Outline: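 Antitumor effect is scored in animals hosting a serially transplanted tumor. Values compare compound-dosed animals against vehicle-only controls as a simple quotient.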

[1] = endpoint: mean survival time, dose: 100.0 mg/kg/injection, schedule: Q01DX001 (ip), vehicle: saline with Tween-80
[2] = endpoint: mean survival time, dose: 200.0 mg/kg/injection, schedule: Q01DX001 (ip), vehicle: saline with Tween-80
[3] = endpoint: mean survival time, dose: 400.0 mg/kg/injection, schedule: Q01DX001 (ip), vehicle: saline with Tween-80
[4] = endpoint: mean survival time, dose: 100.0 mg/kg/injection, schedule: Q01DX009 (ip), vehicle: saline with Tween-80
[5] = endpoint: mean survival time, dose: 200.0 mg/kg/injection, schedule: Q01DX009 (ip), vehicle: saline with Tween-80
[6] = endpoint: mean survival time, dose: 400.0 mg/kg/injection, schedule: Q01DX009 (ip), vehicle: saline with Tween-80
[7] = endpoint: mean survival time, dose: 100.0 mg/kg/injection, schedule: Q04DX003 (ip), vehicle: saline
[8] = endpoint: mean survival time, dose: 200.0 mg/kg/injection, schedule: Q04DX003 (ip), vehicle: saline
[9] = endpoint: mean survival time, dose: 400.0 mg/kg/injection, schedule: Q04DX003 (ip), vehicle: saline
[10] = endpoint: mean survival time, dose: 12.5 mg/kg/injection, schedule: Q01DX009 (ip), vehicle: saline with Tween-80
[11] = endpoint: mean survival time, dose: 12.5 mg/kg/injection, schedule: Q04DX003 (ip), vehicle: saline with Tween-80
[12] = endpoint: mean survival time, dose: 25.0 mg/kg/injection, schedule: Q01DX009 (ip), vehicle: saline with Tween-80
[13] = endpoint: mean survival time, dose: 25.0 mg/kg/injection, schedule: Q04DX003 (ip), vehicle: saline with Tween-80
[14] = endpoint: mean survival time, dose: 50.0 mg/kg/injection, schedule: Q01DX009 (ip), vehicle: Klucel (hydroxypropylcellulose) (HPC)
[15] = endpoint: mean survival time, dose: 50.0 mg/kg/injection, schedule: Q01DX009 (ip), vehicle: saline with Tween-80
[16] = endpoint: mean survival time, dose: 50.0 mg/kg/injection, schedule: Q04DX003 (ip), vehicle: saline with Tween-80
[17] = endpoint: mean survival time, dose: 100.0 mg/kg/injection, schedule: Q04DX003 (ip), vehicle: saline with Tween-80
[18] = endpoint: mean survival time, dose: 200.0 mg/kg/injection, schedule: Q04DX003 (ip), vehicle: saline with Tween-80
[19] = endpoint: mean survival time, dose: 400.0 mg/kg/injection, schedule: Q04DX003 (ip), vehicle: saline with Tween-80

Measured: T/C

COC(=O)C[C@](O)(CCC(C)(C)O)C(=O)O[C@@H]1C(OC)=C[C@]23CCCN2CCc2cc4c(cc2[C@H]13)OCO4
inactive: endpoint: median survival time, dose: 0.06 mg/kg/injection, schedule: Q01DX009 (ip), vehicle: saline 120 % of control | endpoint: median survival time, dose: 0.12 mg/kg/injection, schedule: Q01DX009 (ip), vehicle: saline 119 % of control | endpoint: median survival time, dose: 0.25 mg/kg/injection, schedule: Q01DX009 (ip), vehicle: saline 120 % of control | endpoint: median survival time, dose: 0.5 mg/kg/injection, schedule: Q01DX009 (ip), vehicle: saline 118 % of control and 120 % of control
active: endpoint: median survival time, dose: 4.0 mg/kg/injection, schedule: Q01DX009 (ip), vehicle: saline 153 % of control

COCC(=O)C(C(C)=O)C(c1ccc(OC)cc1)C(C(C)=O)C(=O)COC (stereo unspecified)
inactive: [1] 101 % of control | [2] 98 % of control | [3] 95 % of control

O=C(NNC(=O)c1ccccc1Cl)Nc1ccc(F)c(Cl)c1
inactive: [4] 91 % of control | [5] 86 % of control | [6] 87 % of control

CC(C)N=C1C([O-])=N[N+](C)(C)N1C(C)C
inactive: [4] 106 % of control | [7] 95 % of control | [5] 93 % of control | [8] 98 % of control | [6] 98 % of control | [9] 110 % of control

Nc1nc(N)c2cc(CCc3ccccc3)ccc2n1
inactive: endpoint: mean survival time, dose: 6.25 mg/kg/injection, schedule: Q01DX009 (ip), vehicle: saline with Tween-80 105 % of control | endpoint: mean survival time, dose: 6.25 mg/kg/injection, schedule: Q04DX003 (ip), vehicle: saline with Tween-80 98 % of control | [10] 100 % of control | [11] 98 % of control | [12] 104 % of control | [13] 98 % of control | [14] 106 % of control

NCc1cccn1OCc1ccccc1
inactive: endpoint: mean survival time, dose: 25.0 mg/kg/injection, schedule: Q01DX009 (ip), vehicle: Klucel (hydroxypropylcellulose) (HPC) 96 % of control | [14] 96 % of control | endpoint: mean survival time, dose: 100.0 mg/kg/injection, schedule: Q01DX009 (ip), vehicle: Klucel (hydroxypropylcellulose) (HPC) 107 % of control

COc1cc(Cl)ccc1NC(=O)Nc1cccc(C(=O)O)c1
inactive: [10] 97 % of control | [12] 90 % of control | [15] 90 % of control | [4] 96 % of control | [5] 90 % of control

CN1CCC(CN2c3ccccc3Sc3ccccc32)C1 (stereo unspecified)
inactive: [10] 107 % of control | [12] 102 % of control | [15] 123 % of control

NC(CSS(=O)(=O)O)=NCCCCN=C(N)CSS(=O)(=O)O
inactive: endpoint: mean survival time, dose: 6.25 mg/kg/injection, schedule: Q04DX002 (ip), vehicle: saline with Tween-80 103 % of control | endpoint: mean survival time, dose: 12.5 mg/kg/injection, schedule: Q04DX002 (ip), vehicle: saline with Tween-80 106 % of control | endpoint: mean survival time, dose: 25.0 mg/kg/injection, schedule: Q04DX002 (ip), vehicle: saline with Tween-80 95 % of control

COC(=O)C1C2CC(O)C(C2)C1C(=O)OC (stereo unspecified)
inactive: [10] 97 % of control | [12] 101 % of control | [15] 104 % of control

CCOC1OC(COC(C)=O)C(OC(C)=O)C(OC(C)=O)C1OC(C)=O (stereo unspecified)
inactive: [1] 94 % of control | [2] 97 % of control | [3] 96 % of control

c1ccc2c3c(ccc2c1)-c1oncc1CC3
inactive: [7] 98 % of control | [8] 91 % of control | [9] 102 % of control

CC(C)=NNCCO
inactive: endpoint: mean survival time, dose: 6.25 mg/kg/injection, schedule: Q01DX009 (ip), vehicle: saline 93 % of control | endpoint: mean survival time, dose: 12.5 mg/kg/injection, schedule: Q01DX009 (ip), vehicle: saline 95 % of control | endpoint: mean survival time, dose: 25.0 mg/kg/injection, schedule: Q01DX009 (ip), vehicle: saline 104 % of control

c1cc[n+](CC[n+]2ccccc2)cc1
inactive: [7] 102 % of control | [8] 100 % of control | [9] 111 % of control

Oc1ccccc1C=NCc1ccccc1.Oc1ccccc1C=NCc1ccccc1.[Cu]
inactive: endpoint: mean survival time, dose: 100.0 mg/kg/injection, schedule: Q04DX002 (ip), vehicle: saline with Tween-80 100 % of control | endpoint: mean survival time, dose: 200.0 mg/kg/injection, schedule: Q04DX002 (ip), vehicle: saline with Tween-80 96 % of control | endpoint: mean survival time, dose: 400.0 mg/kg/injection, schedule: Q04DX002 (ip), vehicle: saline with Tween-80 100 % of control

C(CC1CCNCC1)CC1CCNCC1
inactive: [13] 95 % of control | [16] 87 % of control

COC(=O)C1C(O)C(C)C(O)C(C)(O)C=C(C)C2=C3C(=C(C)C(=O)c4c(O)c(c(C)c(OC(C)=O)c43)NC(=O)C(C)=C/C=C\C(C)(O)C(O)C(C)C1O)OCO2 (stereo unspecified)
inactive: [11] 96 % of control | [13] 101 % of control | [16] 101 % of control | [17] 111 % of control

Clc1c(Cl)c(Cl)c(C(c2c(Cl)c(Cl)c(Cl)c(Cl)c2Cl)c2c(Cl)c(Cl)c(Cl)c(Cl)c2Cl)c(Cl)c1Cl
inactive: [17] 98 % of control | [18] 98 % of control | [19] 110 % of control

O=C(OCCNc1ccc([N+](=O)[O-])cc1[N+](=O)[O-])c1ccccc1
inactive: endpoint: mean survival time, dose: 100.0 mg/kg/injection, schedule: Q04DX002 (ip), vehicle: other 101 % of control | endpoint: mean survival time, dose: 200.0 mg/kg/injection, schedule: Q04DX002 (ip), vehicle: other 108 % of control | endpoint: mean survival time, dose: 400.0 mg/kg/injection, schedule: Q04DX002 (ip), vehicle: other 96 % of control

COC(=O)NC(=O)c1cn[nH]n1
inactive: endpoint: mean survival time, dose: 12.5 mg/kg/injection, schedule: Q01DX009 (ip), vehicle: other 98 % of control | endpoint: mean survival time, dose: 25.0 mg/kg/injection, schedule: Q01DX009 (ip), vehicle: other 103 % of control | endpoint: mean survival time, dose: 50.0 mg/kg/injection, schedule: Q01DX009 (ip), vehicle: other 97 % of control | endpoint: mean survival time, dose: 100.0 mg/kg/injection, schedule: Q01DX009 (ip), vehicle: other 101 % of control | endpoint: mean survival time, dose: 200.0 mg/kg/injection, schedule: Q01DX009 (ip), vehicle: other 95 % of control

O=C1C2(CCCCC2)C(=O)C12CCCCC2
inactive: [15] 96 % of control | [4] 110 % of control | [5] 93 % of control

O=c1[nH]c2c(c(=O)n1-c1ccccc1)CCO2
inactive: endpoint: mean survival time, dose: 100.0 mg/kg/injection, schedule: Q01DX001 (ip), vehicle: saline 98 % of control | endpoint: mean survival time, dose: 200.0 mg/kg/injection, schedule: Q01DX001 (ip), vehicle: saline 91 % of control | endpoint: mean survival time, dose: 400.0 mg/kg/injection, schedule: Q01DX001 (ip), vehicle: saline 98 % of control

O=C1C=CC(n2cc(F)c(=O)[nH]c2=O)O1 (stereo unspecified)
active: endpoint: median survival time, dose: 50.0 mg/kg/injection, schedule: Q01DX009 (ip), vehicle: saline 150 % of control and 162 % of control
inactive: endpoint: median survival time, dose: 6.25 mg/kg/injection, schedule: Q01DX009 (ip), vehicle: saline with Tween-80 122 % of control | endpoint: median survival time, dose: 6.25 mg/kg/injection, schedule: Q01DX009 (ip), vehicle: saline 113 % of control and 115 % of control | endpoint: median survival time, dose: 12.5 mg/kg/injection, schedule: Q01DX009 (ip), vehicle: saline 121 % of control | endpoint: median survival time, dose: 25.0 mg/kg/injection, schedule: Q01DX009 (ip), vehicle: saline 122 % of control | endpoint: median survival time, dose: 100.0 mg/kg/injection, schedule: Q01DX009 (ip), vehicle: saline with Tween-80 91 % of control | endpoint: median survival time, dose: 100.0 mg/kg/injection, schedule: Q01DX009 (ip), vehicle: saline 96 % of control and 108 % of control

O=C(O)/C=C/C(=O)NC1CCCCC1
inactive: [17] 97 % of control and 101 % of control | [18] 101 % of control and 97 % of control | [19] 98 % of control and 95 % of control

CC(=O)OCC(COC(C)=O)(COC(C)=O)COC(C)=O
inactive: [4] 97 % of control | [17] 100 % of control | [5] 97 % of control | [18] 96 % of control | [6] 98 % of control | [19] 93 % of control

CC1(C)C=CC=C(C(=O)O)C=C1
inactive: [4] 100 % of control | [17] 98 % of control | [5] 92 % of control | [18] 98 % of control | [6] 89 % of control | [19] 94 % of control

CN=NNc1ccc(C(N)=O)cc1
inactive: endpoint: mean survival time, dose: 18.75 mg/kg/injection, schedule: Q01DX009 (ip), vehicle: saline 100 % of control | endpoint: mean survival time, dose: 37.5 mg/kg/injection, schedule: Q01DX009 (ip), vehicle: saline 109 % of control | endpoint: mean survival time, dose: 75.0 mg/kg/injection, schedule: Q01DX009 (ip), vehicle: saline 101 % of control | endpoint: mean survival time, dose: 150.0 mg/kg/injection, schedule: Q01DX009 (ip), vehicle: saline 96 % of control | endpoint: mean survival time, dose: 300.0 mg/kg/injection, schedule: Q01DX009 (ip), vehicle: saline 100 % of control
